Experimental data as given in patent US8106077B2, “Compounds and methods for modulating FXR” (Eli Lilly and Company, priority 2007, dated 2012).

Columns and labels:
[1] = molecular target: T1, FXR (Homo sapiens, UniProt Q96RI1); experiment: bDNA assay for SHP mRNA; assay type: cell-based; conditions: human hepatocarcinoma Huh7 cells, 24 hours, bDNA signal; read-out: SHP gene activation EC50
T1 construct: Plate human hepatocarcinoma Huh7 cells grown in DMEM:F12 with 10% fetal bovine serum; endogenous in cells; host or cells: Huh7 (human hepatocarcinoma)
T1 sequence (Q96RI1 1-486): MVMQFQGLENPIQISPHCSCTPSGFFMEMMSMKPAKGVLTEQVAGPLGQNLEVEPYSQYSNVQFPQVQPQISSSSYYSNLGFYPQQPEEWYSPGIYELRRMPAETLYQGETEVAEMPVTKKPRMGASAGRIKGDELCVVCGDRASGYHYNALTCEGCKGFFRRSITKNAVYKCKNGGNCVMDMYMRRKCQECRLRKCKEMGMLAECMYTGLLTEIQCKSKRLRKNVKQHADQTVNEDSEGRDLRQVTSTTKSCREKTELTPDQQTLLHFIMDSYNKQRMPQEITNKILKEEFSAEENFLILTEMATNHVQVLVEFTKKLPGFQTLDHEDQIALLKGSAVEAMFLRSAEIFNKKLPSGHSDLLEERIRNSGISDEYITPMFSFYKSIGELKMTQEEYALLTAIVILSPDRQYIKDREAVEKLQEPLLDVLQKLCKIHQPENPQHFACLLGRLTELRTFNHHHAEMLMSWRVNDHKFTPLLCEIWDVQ
Source text: FXR is a key, direct transcriptional regulator of the Small Heterodimer Partner (SHP) gene, accession number NM_021969, an atypical member of the nuclear receptor family that lacks a DNA-binding domain. SHP interacts with several conventional and orphan members of the nuclear receptor superfamily, including retinoid receptors and thyroid hormone receptor. SHP inhibits transactivation potential of superfamily members with which it interacts. […] Since FXR directly transactivates transcription of the SHP gene, the SHP branched DNA method (bDNA) quantitates FXR activation by ligands. Thus, increased expression of SHP mRNA, as determined by increase bDNA signal, signifies engagement of FXR by an agonist.
Plate human hepatocarcinoma Huh7 cells grown in DMEM:F12 with 10% fetal bovine serum and in 96 well plate at the density of 1×10^5/well. After overnight incubation, treat the cells with test compounds at various concentrations for 24 hours. […]
Incubate the lysis buffer for 15-minute at 37° C., then transfer 100 μL of the lysate from each well to the corresponding wells of the capture plate. […] Label the mRNA to be measured by addition of 100 μL QuantiGene® label probe working buffer then incubate for 60 minutes at 46° C. […] Incubate the plates at 37° C. for up to 30 minutes and then read on a luminometer (Packard Fusion Alpha, 1 second detection) to detect the luminescent signal. […]

[2] = system: LDLR−/− mice; experiment: LDLR−/− serum lipid modulation; assay type: in vivo; conditions: male LDLR−/− mice on western diet, 10 mg/kg, oral gavage once daily for seven days
Protocol: Acclimate animals for two weeks prior to study initiation. House mice individually in polycarbonate cages with filter tops, and maintain mice on a 12:12 hour light-dark cycle (lights on at 6:00 AM) at 21° C. Provide deionized water ad libitum and maintain for two weeks on ‘western diet’ TD 88137 Diet (42% fat, 0.15% cholesterol, Harlan Teklad) ad libitum. Optimize groups of five ten-week-old male LDLR−/− mice based on serum triglyceride and cholesterol levels. Dose groups once daily by oral gavage with various doses of the test compound dissolved in 5% EtOH/5% Solutol in NaCMC (1%), SLS (0.5%), antifoam (0.05%), Povidone (0.085%) for seven days. At the end of the seven-day dosing period, collect blood by cardiac puncture after asphyxiation in a CO2 chamber. […] Lipoproteins were separated by fast protein liquid chromatography, and cholesterol was quantitated with an in-line detection system. […] The colored product produced in the presence of cholesterol was monitored in the flow stream at 505 nm, and the analog voltage from the monitor was converted to a digital signal for collection and analysis. The change in voltage corresponding to change in cholesterol concentration was plotted vs. time, and the area under the curve corresponding to the elution of VLDL-C and HDL-C was calculated using Turbochrome (version 4.12F12) software from PerkinElmer (Norwalk, Conn.). […]

EC50 [1] [nM] | Structure (SMILES) | lowering of total cholesterol [2] [%] | lowering of triglycerides [2] [%]
~370 | Cc1cc(OCc2c(C(C)C)nnn2-c2c(Cl)cccc2Cl)ccc1N(C)Cc1ccc(C(=O)O)cc1 [Example 42, 4-[({4-[5-Isopropyl-3-(2,6-Dichloro-phenyl)-3H-[1,2,3]triazol-4-ylmethoxy]-2-methyl-phenyl}-methyl-amino)-methyl]-benzoic acid] | – | –
– | Cc1cc(CN(C)c2ccc(OCc3c(C(C)C)nnn3-c3c(Cl)cccc3Cl)cc2C)ccc1C(=O)O [Example 13, 4-[({4-[5-Isopropyl-3-(2,6-dichloro-phenyl)-3H-[1,2,3]triazol-4-ylmethoxy]-2-methyl-phenyl}-methyl-amino)-methyl]-2-methyl-benzoic acid] | 60 | 63
